What was measured:
[1] = test system: IL-6; experiment: IL-6 in cerebral cortex of TBI rats; assay type: in vivo, SD rats; details: 30 mg/kg ip 2 h after TBI; 24 h after administration; FIG. 3
Description: The experimental grouping and drug administration plan were as follows. • Sham operation group (Group P): saline was given with the same volume as in the CTMB group; • Model group (T group): a blank emulsion was given with the same volume as in the CTMB group; • Medium dose group (Group M): a dose of 30 mg/kg of CTMB emulsion injection was given.
The experimental grouping and drug administration plan were the same as the test 3. After 2 h of the TBI modeling, different groups of rats were administered intraperitoneally. After 24 h of the administration, the rats were deeply anesthetized, the head was severed and the brain was removed, about 60-120 mg of hemisphere cortex was taken out from the hemisphere on the blood side, 10 times the volume of ice-cold centrifugal buffer used for biochemical assays was added, homogenization was carried out in an ice bath for 10 min, and centrifugation was carried out at 4° C. and 14000 rpm/min for 30 min. The supernatant was extracted, and inflammatory factors IL-1, IL-6, and TNF-α were tested according to the instructions of IL-1, IL-6, and TNF-α assay kits, respectively.

[2] = test system: rat model of lithium-pilocarpine-induced epilepsy; experiment: Survival of SE model rats after drug intervention in the acute phase; assay type: in vivo, Sprague Dawley (SD) rats; details: 50 mg/kg ip; Logrank test P<0.05 vs model; FIG. 1
Description: Methylscopolamine bromide, lithium chloride, and pilocarpine were weighed, and experimental drugs were dissolved to working concentrations (100 mg/mL of lithium chloride solution, 1 mg/mLof methylscopolamine bromide solution, and 20 mg/mL of pilocarpine solution) with 0.9% saline. Rats were injected intraperitoneally with lithium chloride (a dose of 127 mg/kg), and 18-20 h later, scopolamine methylbromide (a dose of 1 mg/kg) was injected intraperitoneally. […] Thereafter, an additional dose of 10 mg/kg pilocarpine was injected intraperitoneally every 30 min until the onset of a grade IV or higher status epilepticus (SE)-like seizure without significant intermittent intervals, with a maximum dose of 60 mg/kg.
The rats with successful modeling were randomly divided into three groups, namely a model group, a CTMB group, and a sodium valproate (VPA) group. Administration was carried out after 1 h of SE onset, with a blank emulsion given by intraperitoneal injection in the model group, a CTMB emulsion injection at a dose of 50 mg/kg given by intraperitoneal injection in the CTMB group, and sodium valproate at a dose of 300 mg/kg given by oral gavage in the VPA group. […]
The differences between the survival curves of the rats in each group were analyzed by a Logrank test.

[3] = test system: Malondialdehyde (MDA); experiment: MDA content in striatum of PD mice; assay type: in vivo, C57 mice; details: Group D, CTMB 20 mg/kg ip, after 4 weeks, injured side
Description: (§1) The mice were randomly divided into a sham operation group (group S, given a blank emulsion with a volume equal to that of the administered group), a model group (group M, given a blank emulsion with a volume equal to that of the administered group), a CTMB group (20 mg/kg, group D), and a levodopa group (levodopa: benserazide hydrochloride=4:1, 12 mg/kg, group L), each group included 10-12 mice, and all of them were administered intraperitoneally.
Malondialdehyde (MDA) is a commonly used indicator of membrane lipid peroxidation, reduced glutathione (GSH) is one of the most commonly used non-enzymatic indicators of antioxidant substances, and superoxide dismutase (SOD) is a common indicator of antioxidant enzymes. After completing the evaluation of motor function after 4 weeks of drug administration, the mice were deeply anesthetized and perfused with 20 mL of saline via the heart. The brain was rapidly severed to isolate the striatal region on the injured side (right side), weighed, and placed into a 1.5 mL EP tube, and homogenized at low temperature by adding phosphate-buffered saline (PBS) at the ratio of a weight of animal tissues (g) to a volume of homogenization medium (mL) of 1:9. […]

[4] = test system: Tyrosine hydroxylase (TH) protein expression; experiment: TH protein expression by immunohistochemistry in substantia nigra of PD mice; assay type: in vivo, C57 mice; details: Group D, CTMB 20 mg/kg ip, after 4 weeks of administration
Description: as §1
After completing the evaluation of motor function after 4 weeks of drug administration, the mice were deeply anesthetized, perfused with 20 mL of saline and 20 mL of 4% paraformaldehyde via the heart, and the brains were rapidly severed and extracted from the head, which were then preserved and fixed in 4% paraformaldehyde for 72 h after removal, and then embedded with paraffin to prepare the slices with a thickness of 4 μm for subsequent pathological and histological studies.
Tyrosine hydroxylase (TH) protein expression was detected by immunohistochemistry. […]

COc1cc(OC)c(OC)cc1C=C1CCC1 [CTMB, 1-(cyclobutylidenemethyl)-2,4,5-trimethoxybenzene]
content of IL-6 in cerebral cortex tissue [1]: significantly reduced | survival rate of the SE model rats [2]: significantly increases the survival rate | MDA [3]: 2.04 ± 0.57 μmol/g protein | TH-positive neurons (a percentage of TH-positive neurons to uninjured side, %) [4]: 39.9 ± 12.1^###,***^, && %

Source: US20250270159A1, “1-(CYCLOBUTANEMETHYLIDENE)-2, 4, 5-TRIMETHOXYBENZENE COMPOUND AND PREPARATION METHOD AND USE THEREOF” (CHENGDU XINRUI TAIKANG TECHNOLOGY CO., LTD., priority 2023, published 2025)
